Here are results for 61 molecules from PubChem BioAssay AID2658 (Sanford-Burnham Center for Chemical Genomics, 2010).

Where “and” joins values, the source holds several entries; their conditions need not be identical. Identical values can stand only once. Calls of active or inactive are those of the source. No rule for the calls is given here.

The target of this experiment is Ubiquitin-conjugating enzyme E2 N (Homo sapiens) (UniProt P61088). Put plainly: Ubc13/Uev1a ubiquitination inhibitors, SAR follow-up, selectivity assay, biochemical, TR-FRET (AID 2658). The following applies: Ubc13/Uev1a polyubiquitination, in vitro.
Chain of Ubiquitin-conjugating enzyme E2 N (Homo sapiens) (P61088 whole entry, looked up): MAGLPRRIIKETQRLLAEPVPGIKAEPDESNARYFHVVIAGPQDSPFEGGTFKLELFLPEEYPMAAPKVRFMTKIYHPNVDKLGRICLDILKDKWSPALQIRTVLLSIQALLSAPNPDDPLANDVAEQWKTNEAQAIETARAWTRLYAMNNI
For `NS(=O)(=O)c1ccc2c(c1)C1C=CCC1C(c1ccc([N+](=O)[O-])cc1)N2` (stereo unspecified), the IC50 was > 100 µM (inactive).

Consider `COc1ccccc1NC(=O)Cn1c(O)c(N=NC(=O)c2ccccc2O)c2ccccc21`, for which the IC50 was > 100 µM (inactive).

Regarding `COc1ccc(CCNC(=O)c2cc(-c3ccco3)nc3ccccc23)cc1`, the half-maximal inhibitory concentration (IC50) was 65 µM.

For `COC(=O)c1c(-c2ccccc2)csc1NC(=O)/C=C/c1cccs1`, the IC50 is > 100 µM (inactive).

As to `CN(C(=O)COC(=O)c1cc(-c2ccco2)nc2ccccc12)C1CCS(=O)(=O)C1` (stereo unspecified), the IC50 is 47.2 µM.

On to `COC(=O)c1ccc2c(c1)C1C=CCC1C(c1ccc(C(=O)O)cc1)N2` (stereo unspecified), for which the IC50 was > 100 µM (inactive).

For `Cc1ccsc1C=Nc1ccc(F)cc1`, the IC50 was > 100 µM (inactive).

Take `CC(=NOCc1nc2ccccc2c(=O)n1N=Cc1cc([N+](=O)[O-])ccc1O)c1ccccc1`: the IC50 was > 100 µM (inactive).

Consider `CC(=NOCc1nc2ccccc2c(=O)n1N=Cc1cc(C)cc([N+](=O)[O-])c1O)c1ccccc1`, for which the IC50 was > 100 µM (inactive).

As for `COc1ccc(CCNC(=O)COC(=O)c2cc(-c3ccco3)nc3ccccc23)cc1`, the IC50 is > 100 µM (inactive).

Regarding `S=c1[nH]nc(-c2cc(-c3ccccc3)n[nH]2)n1N=Cc1ccc(Cl)c(Cl)c1`, the IC50 is > 100 µM (inactive).

Regarding `CN(Cc1ccc(F)cc1)C(=O)COC(=O)c1cc(-c2ccco2)nc2ccccc12`, the IC50 is > 100 µM (inactive).

As to `Cc1ccc(CNC(=O)COC(=O)c2cc(-c3ccco3)nc3ccccc23)cc1`, the IC50 is 58.9 µM.

`C/C(=N\OCc1nc2ccccc2c(=O)n1/N=C/c1ccc(Cl)cc1)c1ccccc1`: the IC50 is > 100 µM (inactive).

Regarding `O=C(COC(=O)c1cc(-c2ccco2)nc2ccccc12)NCc1cccc(Cl)c1`, the IC50 was > 100 µM (inactive).

Consider `S=c1[nH]nc(-c2cc(-c3ccccc3)n[nH]2)n1N=Cc1c(Cl)cccc1Cl`, for which the IC50 is > 100 µM (inactive).

In the case of `CCNC(=O)COC(=O)c1cc(-c2ccco2)nc2ccccc12`, the IC50 is > 100 µM (inactive).

For the molecule `COc1ccc(-n2c(NC(=O)c3ccc(Br)o3)c(C#N)c3nc4ccccc4nc32)cc1`, the IC50 is > 100 µM (inactive).

Consider `COc1ccccc1CNC(=O)COC(=O)c1cc(-c2ccco2)nc2ccccc12`, for which the IC50 was 60.2 µM.

With `N=C(N)c1ccc2cc(OC(=O)c3ccc(N=C(N)N)cc3)ccc2c1`, the 50% inhibitory concentration (IC50) is 14 µM.

Take `O=C1c2oc3ccccc3c(=O)c2C(c2ccccc2)N1c1nccs1` (stereo unspecified): the IC50 is > 100 µM (inactive).

In the case of `COc1ccc(CCNC(=O)COC(=O)c2cc(-c3ccco3)nc3ccccc23)cc1OC`, the 50% inhibitory concentration (IC50) is 92.6 µM.

In the case of `COc1cc(C2c3c(oc4ccccc4c3=O)C(=O)N2c2nccs2)ccc1O` (stereo unspecified), the IC50 is > 100 µM (inactive).

Take `Fc1ccc(C2Nc3ccccc3C3C=CCC32)cc1` (stereo unspecified): the IC50 is > 100 µM (inactive).

Regarding `O=c1c2ccccc2nc(COc2ccccc2)n1N=Cc1cc([N+](=O)[O-])ccc1O`, the IC50 was > 100 µM (inactive).

As for `COc1ccccc1CNC(=O)CCOC(=O)c1cc(-c2ccco2)nc2ccccc12`, the IC50 was > 100 µM (inactive).

For the molecule `COc1ccccc1CNC(=O)c1cc(-c2ccco2)nc2ccccc12`, the IC50 is > 100 µM (inactive).

For `Clc1ccc2c(c1)C1C=CCC1C(c1ccccc1)N2` (stereo unspecified), the IC50 is > 100 µM (inactive).

Take `O=C(COC(=O)c1cc(-c2ccco2)nc2ccccc12)NCc1ccccc1Cl`: the IC50 was > 100 µM (inactive).

As for `Cc1ccc(O)c(N=Cc2cccs2)c1`, the IC50 is > 100 µM (inactive).

On to `O=C(COC(=O)c1cc(-c2ccco2)nc2ccccc12)NCc1ccc(Cl)cc1`, for which the IC50 was 73.4 µM and 74.4 µM.

In the case of `COC(=O)c1cccc(-c2ccc(C(c3c(C)[nH][nH]c3=O)c3c(C)[nH][nH]c3=O)o2)c1`, the IC50 is > 100 µM (inactive).

For `O=C(OCC(=O)N1CCc2ccccc2C1)c1cc(-c2ccco2)nc2ccccc12`, the IC50 is > 100 µM (inactive).

As to `Cc1cccc2c(N=Nc3ccc(S(=O)(=O)Nc4cccc(Cl)c4)cc3[N+](=O)[O-])c(O)[nH]c12`, the IC50 is > 100 µM (inactive).

Regarding `Cc1ccc(C2Nc3ccc(C(=O)O)cc3C3C=CCC32)cc1` (stereo unspecified), the IC50 was > 100 µM (inactive).

Regarding `O=C(/C=C/c1cccs1)Nc1scc(-c2ccccc2)c1C(=O)O`, the IC50 was 78.4 µM.

Take `Cc1cccc(Nc2cc3ccccc3c(=O)[nH]2)c1`: the IC50 was > 100 µM (inactive).

Turning to `Cc1c(Cl)cccc1NS(=O)(=O)c1ccc2c(c1)C1C=CCC1C(c1ccc(C(=O)O)cc1)N2` (stereo unspecified), the IC50 was > 100 µM (inactive).

On to `Cc1ccc(C=Nc2ccccc2C(N)=O)s1`, for which the IC50 was > 100 µM (inactive).

For the molecule `COc1ccc(CNC(=O)c2cc(-c3ccco3)nc3ccccc23)cc1`, the IC50 was > 100 µM (inactive).

`O=C(Nc1ccccc1N1CCOCC1)c1cc(-c2ccco2)nc2ccccc12`: the IC50 was > 100 µM (inactive).

For the molecule `O=C1c2oc3ccccc3c(=O)c2C(c2ccc(O)cc2)N1c1nccs1` (stereo unspecified), the IC50 was > 100 µM (inactive).

In the case of `O=C(N/N=C/c1cccc(F)c1)c1cc(-c2ccco2)nc2ccccc12`, the IC50 is 25.8 µM and 23.3 µM.

On to `O=S(=O)(Nc1ccccc1F)c1ccc2c(c1)C1C=CCC1C(c1ccc(F)cc1)N2` (stereo unspecified), for which the IC50 is > 100 µM (inactive).

For `COc1ccccc1CCNC(=O)COC(=O)c1cc(-c2ccco2)nc2ccccc12`, the IC50 was > 100 µM (inactive).

For `Cc1[nH][nH]c(=O)c1C(c1ccc(-c2cccc(C(=O)O)c2)o1)c1c(C)[nH][nH]c1=O`, the IC50 was > 100 µM (inactive).

Consider `Cc1[nH][nH]c(=O)c1C(c1ccc(-c2ccc(C(=O)O)cc2)o1)c1c(C)[nH][nH]c1=O`, for which the IC50 is > 100 µM (inactive).

Take `O=C(N/N=C/c1ccc(F)cc1)c1cc(-c2ccco2)nc2ccccc12`: the IC50 was 26.1 µM and 31.2 µM.

Regarding `O=C(COC(=O)c1cc(-c2ccco2)nc2ccccc12)NC(=O)c1ccccc1`, the IC50 is 92.6 µM.

For the molecule `C/C(=N\OCc1nc2ccccc2c(=O)n1/N=C/c1ccccc1O)c1ccccc1`, the IC50 is > 100 µM (inactive).

Regarding `O=C(O)c1ccc2c(c1)C1C=CCC1C(c1ccc(F)cc1)N2` (stereo unspecified), the IC50 is > 100 µM (inactive).

`O=C(N=Nc1c(O)n(Cc2ccccc2)c2ccccc12)c1cc2ccccc2cc1O`: the IC50 is > 100 µM (inactive).

As to `COc1ccccc1NC(=O)COC(=O)c1cc(-c2ccco2)nc2ccccc12`, the concentration for half-maximal inhibition (IC50) was 16.7 µM and > 100 µM (inactive).

Consider `Cc1ccsc1C=Nc1ccc(C(N)=O)cc1`, for which the IC50 was > 100 µM (inactive).

With `C=CCC(Nc1ccccc1)C12C=CC(O1)C(C(=O)OC)=C2C(=O)OC` (stereo unspecified), the IC50 was > 100 µM (inactive).

In the case of `COc1ccccc1CNC(=O)CNC(=O)c1cc(-c2ccco2)nc2ccccc12`, the IC50 is > 100 µM (inactive).

As for `COc1ccccc1C(=O)NC(=O)COC(=O)c1cc(-c2ccco2)nc2ccccc12`, the IC50 is > 100 µM (inactive).

Regarding `Cc1ccccc1NC(=O)Cn1c(O)c(N=NC(=O)c2ccccc2O)c2ccccc21`, the half-maximal inhibitory concentration (IC50) is 98 µM.

In the case of `COc1ccc2c(c1)C(NC(C)=O)C(=O)N2CCN1CCOCC1` (stereo unspecified), the 50% inhibitory concentration (IC50) is 86.1 µM.

Take `Cc1ccsc1C=Nc1ccc(O)cc1`: the IC50 was > 100 µM (inactive).

Consider `O=C(NN=Cc1ccc(F)cc1)c1cc(-c2ccco2)nc2ccccc12`, for which the IC50 is > 100 µM (inactive).

As a reminder, the IC50 is the midpoint of a concentration-inhibition curve.
